From US20090170934A1, “MANUFACTURING PROCESS FOR NO-DONATING COMPOUNDS SUCH AS NO-DONATING DICLOFENAC” (NICOX SA, priority 2002, published 2009) come the findings set out here.

Each structure is given as a SMILES string.

The compound `O=C(Cc1ccccc1Nc1c(Cl)cccc1Cl)OCCOCCO[N+](=O)[O-]` [Compound IVa, 2-[2-(nitrooxy)ethoxy]ethyl {2-[(2,6-dichlorophenyl)amino]phenyl}acetate] registered a melting point of 73 °C.
